Results from patent US10851108B2, “Substituted bicyclic heterocyclic compounds” (BRISTOL-MYERS SQUIBB COMPANY, priority 2016, dated 2020).

Each compound was assayed against hROMK (human Kir1.1) (Homo sapiens (Human), UniProt P48048) (assay: Thallium Flux Assay). Details: CHO T-Rex hROMK stable cell line, 10-point concentration response; read-out: hROMK Th+ Flux IC50.
Format: cell-based
Protocol: Solutions and reagents: Thallium flux assay was performed using FluxOR kit (F10017, Life Technologies). Loading buffer, assay buffer and stimulus buffer were prepared using kit components. HBSS (Hank's balanced salt solution, Cat #14025-092) was purchased separately from Life Technologies.
To prepare 10 ml of loading buffer: 10 μl of FluxOR dye (reconstituted in DMSO) was first added to 100 μl of powerload concentrate and this mix along with 100 μl of Probenicid (100×) was then added to 9.79 ml of HBSS. Assay buffer (10 ml) was prepared by addition of 2 ml of FluxOR chloride free buffer (5×), 100 μl of Probenicid (100×), and 0.2 ml of Ouabain (13.77 mM) to 7.7 ml of deionized water. Stimulus buffer was composed of 15 mM Tl2SO4, 0.75 mM K2SO4 in FluxOR chloride free buffer (diluted to 1× using deionized water). The final concentration of Tl2SO4 and K2SO4 in the assay plate was 3 mM and 0.15 mM, respectively.
Plating and induction of cells: The CHO T-Rex hROMK (human Kir1.1) stable cell line was maintained in Ham's F12 media supplemented with 10% FBS, 1% Penicillin-Streptomycin, 500 μg/ml Zeocin and 10 μg/ml Blasticidin at 37° C. in a 5% CO2 incubator. One day before the experiment, the cells were dissociated by incubation with Versene solution (15040-066, Life Technologies) for 10 minutes at 37° C. followed by addition of growth media. The cell suspension was centrifuged at 1200 rpm for 5 min. After discarding the supernatant, the cells were resuspended in fresh growth media and cell concentration was determined using a hemocytometer. Next, 0.5 μg/ml of Doxycycline was added to the cell suspension to induce hROMK channel expression and 50 μl (10,000 cells/well) of cell suspension was added to each well of a poly-D lysine coated 384 well black, optically clear bottom plate (6007718, Perkin Elmer). The assay plate was kept at 37° C. in a 5% CO2 incubator.
Assay protocol: On the day of experiment, media was removed and loading buffer was added (30 μl/well) to the assay plate. The cells were incubated in the loading buffer for 30 minutes at 37° C. The loading buffer was then replaced by assay buffer (30 μl/well) followed by addition of test compounds or controls. The cells were incubated with compounds for 30 minutes and the plate was then mounted on FlexStation (Molecular Devices) for fluorescence read out with excitation and emission wavelengths at 488 and 525 nm, respectively. Each well was read for 90 sec at 2 sec interval and the stimulus buffer was added after 20 seconds of baseline recording. The final DMSO concentration was either 0.5 or 1% in the assay plate. […] controls were defined by addition of DMSO or 3 μM of a standard ROMK inhibitor, respectively, to the wells instead of a test compound.
A 10-point concentration response curve was used to estimate the IC50 value of test compounds.
The data in Table 3 is reported with two significant figures.

Sequence of hROMK (human Kir1.1) (P48048 whole entry): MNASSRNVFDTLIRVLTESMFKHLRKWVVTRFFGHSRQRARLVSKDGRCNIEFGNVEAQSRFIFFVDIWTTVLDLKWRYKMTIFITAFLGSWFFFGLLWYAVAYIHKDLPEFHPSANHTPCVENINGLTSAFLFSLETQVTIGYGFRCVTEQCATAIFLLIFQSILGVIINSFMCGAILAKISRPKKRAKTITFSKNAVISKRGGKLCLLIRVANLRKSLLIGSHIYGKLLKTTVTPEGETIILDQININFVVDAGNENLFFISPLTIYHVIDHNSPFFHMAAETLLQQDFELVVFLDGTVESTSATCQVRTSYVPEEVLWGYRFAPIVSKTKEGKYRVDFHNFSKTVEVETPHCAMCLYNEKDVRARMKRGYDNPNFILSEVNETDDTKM

Point of comparison: `N#Cc1ccc(Nc2ccc3c(c2)CCN(CCc2ccc4c(c2)COC4=O)C3)cc1F` [Example 6, 2-fluoro-4-((2-(2-(1-oxo-1,3-dihydroisobenzofuran-5-yl)ethyl)-1,2,3,4-tetrahydroisoquinolin-6-yl)amino)benzonitrile], IC50 120 nM. Against it:
- Cc1c(C(O)CN2CCc3nc(-n4ccc5c(C#N)ccnc54)ncc3C2)ccc2c1COC2=O (single isomer, unassigned) [Example 19-I, 1-(6-(2-hydroxy-2-(4-methyl-1-oxo-1,3-dihydroisobenzofuran-5-yl)ethyl)-5,6,7,8-tetrahydropyrido[4,3-d]pyrimidin-2-yl)-1H-pyrrolo[2,3-b]pyridine-4-carbonitrile] — 3.8-fold higher, 460 nM
- Cc1c(C(O)CN2CCc3nc(-n4ncc5cc(C#N)ccc54)ncc3C2)ccc2c1COC2=O (single isomer, unassigned) [Example 50, 1-(6-(2-hydroxy-2-(4-methyl-1-oxo-1,3-dihydroisobenzofuran-5-yl)ethyl)-5,6,7,8-tetrahydropyrido[4,3-d]pyrimidin-2-yl)-1H-indazole-5-carbonitrile] — 5.8-fold higher, 700 nM
- Cn1c(=O)oc2ccc(C(O)CN3CCc4nc(-n5ccc6c(C#N)cccc65)ncc4C3)cc21 (single isomer, unassigned) [Example 22-II, 1-(6-(2-hydroxy-2-(3-methyl-2-oxo-2,3-dihydrobenzo[d]oxazol-5-yl)ethyl)-5,6,7,8-tetrahydropyrido[4,3-d]pyrimidin-2-yl)-1H-indole-4-carbonitrile] — 5.8-fold higher, 700 nM
- Cc1c(C(O)CN2CCc3nc(-n4ncc5c(C#N)ccnc54)ncc3C2)ccc2c1COC2=O (single isomer, unassigned) [Example 35-II, 1-(6-(2-hydroxy-2-(4-methyl-1-oxo-1,3-dihydroisobenzofuran-5-yl)ethyl)-5,6,7,8-tetrahydropyrido[4,3-d]pyrimidin-2-yl)-1H-pyrazolo[3,4-b]pyridine-4-carbonitrile] — 41-fold higher, 4900 nM
- Cc1c(C(CO)N2CCc3nc(Nc4ccc(C#N)c(F)c4)ncc3C2)ccc2c1COC2=O (single isomer, unassigned) [Example 29-I, 2-fluoro-4-((6-(2-hydroxy-1-(4-methyl-1-oxo-1,3-dihydroisobenzofuran-5-yl)ethyl)-5,6,7,8-tetrahydropyrido [4,3-d]pyrimidin-2-yl)amino)benzonitrile] — 25-fold higher, 3000 nM
- Cc1c(C(CO)N2CCc3nc(-n4cc(C#N)c5ccccc54)ncc3C2)ccc2c1COC2=O (single isomer, unassigned) [Example 9-I, 1-(6-(2-hydroxy-1-(4-methyl-1-oxo-1,3-dihydroisobenzofuran-5-yl)ethyl)-5,6,7,8-tetrahydropyrido[4,3-d]pyrimidin-2-yl)-1H-indole-3-carbonitrile] — 25-fold higher, 3000 nM
- Cc1c(CN2CCc3nc(-n4ccc5cc(C#N)ccc54)ncc3C2)ccc2c1COC2=O [Example 21, 1-(6-((4-methyl-1-oxo-1,3-dihydro-isobenzofuran-5-yl)methyl)-5,6,7,8-tetrahydropyrido[4,3-d]pyrimidin-2-yl)-1H-indole-5-carbonitrile] — 27-fold higher, 3200 nM
- Cc1c(C(O)CN2CCc3nc(-n4ncc5c(C#N)ccnc54)ncc3C2)ccc2c1COC2=O (single isomer, unassigned) [Example 35-I, 1-(6-(2-hydroxy-2-(4-methyl-1-oxo-1,3-dihydroisobenzofuran-5-yl)ethyl)-5,6,7,8-tetrahydropyrido[4,3-d]pyrimidin-2-yl)-1H-pyrazolo[3,4-b]pyridine-4-carbonitrile] — 6.7-fold higher, 800 nM
- Cc1c(C(O)CN2CCc3nc(N4CCc5c(C#N)cccc54)ncc3C2)ccc2c1COC2=O (single isomer, unassigned) [Example 65-II, 1-(6-(2-hydroxy-2-(4-methyl-1-oxo-1,3-dihydroisobenzofuran-5-yl)ethyl)-5,6,7,8-tetrahydropyrido[4,3-d]pyrimidin-2-yl)indoline-4-carbonitrile] — 3.1-fold higher, 376 nM
- Cc1c(C(O)CN2CCc3nc(-n4ncc5c(C#N)cncc54)ncc3C2)ccc2c1COC2=O (single isomer, unassigned) [Example 43-II, 1-(6-(2-hydroxy-2-(4-methyl-1-oxo-1,3-dihydroisobenzofuran-5-yl)ethyl)-5,6,7,8-tetrahydropyrido[4,3-d]pyrimidin-2-yl)-1H-pyrazolo[3,4-c]pyridine-4-carbonitrile] — 5.3-fold higher, 640 nM
- Cc1c(CN2CCc3cc(Nc4ccc(C#N)c(F)c4)ccc3C2)ccc2c1COC2=O [Example 30, 2-fluoro-4-((2-((4-methyl-1-oxo-1,3-dihydroisobenzofuran-5-yl)methyl)-1,2,3,4-tetrahydroisoquinolin-6-yl)amino)benzonitrile] — 6.8-fold higher, 810 nM
- N#Cc1ccc(Nc2ccc3c(n2)CCN(CCc2ccc4c(c2)COC4=O)C3)cc1F [Example 7, 2-fluoro-4-((6-(2-(1-oxo-1,3-dihydroisobenzofuran-5-yl)ethyl)-5,6,7,8-tetrahydro-1,6-naphthyridin-2-yl)amino)benzonitrile] — 1.7-fold higher, 200 nM
- Cc1c(CN2CCc3nc(-n4ccc5c(C#N)cccc54)ncc3C2)ccc2c1COC2=O [Example 20, 1-(6-((4-methyl-1-oxo-1,3-dihydro-isobenzofuran-5-yl)methyl)-5,6,7,8-tetrahydropyrido[4,3-d]pyrimidin-2-yl)-1H-indole-4-carbonitrile] — 12-fold higher, 1500 nM
- Cc1c(C(O)CN2CCc3nc(Nc4ccc(-n5cnnn5)cn4)ncc3C2)ccc2c1COC2=O (single isomer, unassigned) [Example 63-I, 5-(2-(2-((5-(1H-tetrazol-1-yl)pyridine-2-yl)amino)-7,8-dihydropyrido[4,3-d]pyrimidin-6(5H)-yl)-1-hydroxyethyl)-4-methylisobenzofuran-1(3H)-one] — 10-fold higher, 1240 nM
- Cn1c(=O)oc2ccc(C(O)CN3CCc4nc(-n5ncc6c(C#N)cccc65)ncc4C3)cc21 (single isomer, unassigned) [Example 3-I, 1-(6-(2-hydroxy-2-(3-methyl-2-oxo-2,3-dihydrobenzo[d]oxazol-5-yl)ethyl)-5,6,7,8-tetrahydropyrido[4,3-d]pyrimidin-2-yl)-1H-indazole-4-carbonitrile] — 6.2-fold higher, 740 nM
- Cc1c(N2CCc3cc(NCc4ccc(C#N)c(F)c4)ccc3C2)ccc2c1COC2=O [Example 10, 2-fluoro-4-(((2-(4-methyl-1-oxo-1,3-dihydroisobenzofuran-5-yl)-1,2,3,4-tetrahydroisoquinolin-6-yl)amino)methyl)benzonitrile] — 38-fold higher, 4600 nM
- Cc1c(C(O)CN2CCc3nc(-n4ccc5cc(C#N)ccc54)ncc3C2)ccc2c1COC2=O (single isomer, unassigned) [Example 16-II, 1-(6-(2-hydroxy-2-(4-methyl-1-oxo-1,3-dihydroisobenzofuran-5-yl)ethyl)-5,6,7,8-tetrahydropyrido[4,3-d]pyrimidin-2-yl)-1H-indole-5-carbonitrile] — 3.2-fold higher, 380 nM
- Cc1c(CCN2CCc3nc(Nc4ccc(C#N)c(F)c4)ncc3C2)ccc2c1COC2=O [Example 27, 2-fluoro-4-((6-(2-(4-methyl-1-oxo-1,3-dihydroisobenzofuran-5-yl)ethyl)-5,6,7,8-tetrahydropyrido[4,3-d]pyrimidin-2-yl)amino) benzonitrile] — 1.7-fold higher, 200 nM
- Cn1c(=O)oc2ccc(C(O)CN3CCc4nc(-n5ccc6c(C#N)cccc65)ncc4C3)cc21 (single isomer, unassigned) [Example 22-I, 1-(6-(2-hydroxy-2-(3-methyl-2-oxo-2,3-dihydrobenzo[d]oxazol-5-yl)ethyl)-5,6,7,8-tetrahydropyrido[4,3-d]pyrimidin-2-yl)-1H-indole-4-carbonitrile] — 8.3-fold higher, 1000 nM
- N#Cc1cccc2c1ccn2-c1ncc2c(n1)CCN(CC(O)c1ccc3c(c1)COC3=O)C2 (single isomer, unassigned) [Example 18-II, 1-(6-(2-hydroxy-2-(1-oxo-1,3-dihydro-isobenzofuran-5-yl)ethyl)-5,6,7,8-tetrahydropyrido[4,3-d]pyrimidin-2-yl)-1H-indole-4-carbonitrile] — 4.8-fold higher, 580 nM
- Cc1c(C(O)CN2CCc3nc(-n4ncc5ncccc54)ncc3C2)ccc2c1COC2=O (single isomer, unassigned) [Example 41-II, 5-(2-(2-(1H-pyrazolo[4,3-b]pyridin-1-yl)-7,8-dihydropyrido[4,3-d]pyrimidin-6(5H)-yl)-1-hydroxyethyl)-4-methylisobenzofuran-1(3H)-one] — 10-fold higher, 1200 nM
